# Laboratory results reported in EP0505817A1, “Use of phosphatidylserine and its derivatives for the manufacture of a medicament for the treatment of degenerative pathologies also associated with immune disfunctions” (FIDIA S.p.A., priority 1991, dated 1992).
# Test system: TNF-α
# Assay: Serum TNF induced by LPS in the mouse after phospholipid pretreatment (L-929 cytotoxicity bioassay)
# Type: in vivo
# Settings: S. Thyphi LPS 5 µ i.p., blood 60' later; for TNF-α title treated: average ± SEM
# Description: Utilized are: • 170 Charles River CD-1 albino male mice weighing about 25-30 g • 6 New Zealand male rabbits weighing about 2-2.5 kg.
# The animals after 90' from the last phospholipidic treatment or with THIS (as indicated later-on), are treated by parenteral route with S. Thyphi or E. Coli (Sigma) lipopolysaccharide.
# Particularly: • mouse: injection of 5 µg LPS i.p. (1st experiment) or 25 µg LPS i.v. (2nd experiment) the blood sample is taken after 60 min. • rabbit: injection of 1 µg LPS i.v.. The blood sample is taken after 90 minutes.
# The following products are tested: • BC-PS (phosphatidylserine in the commercially available form consisting of a composition comprising: phosphatidylserine extracted from bovine brain as described in example 1) • PS (phosphatidylserine) • PC (phosphatidylcholine) • PG (phosphatidylglycerol) • DPS (lysophosphatidylserine) • PE (phosphatidylethanolamine) • […] (1-myristoyl-2-deoxi-3-glycerophospho-L-serine) The phospholipids purity and their composition are determined by thin layer bidimensional chromatography (Punzi, L. et al.: Phospholipids in inflammatory synovial effusions. Rheumatol. Int. 6, 7-11, 1986).
# Phospholipids are then solubilized in 50 mM TRIS-HCl pH 7.8 and suitably sonicated.
# The phospholipidic dispersion is then injected in animals under the following conditions: • mouse: BC-PS 15-30 mg/kg/die i.p. for 3 days or 30 mg/kg/die i.v. for 3 days DPS, PSS₄ 20 mg/kg/die i.p. for 3 days PS, PC, PG, PE 25 mg/kg/die i.p. for 3 days • rabbit: 30 mg/kg/die i.v. for 5 days.
# LPS is then administered following the above mentioned conditions with successive blood sample for the seric TNF dosage.
# The level of seric TNF was evaluated by biological dosage, using the fibroblasts line L-929 of murine sarcoma (American type culture collection). In fact TNF is cytotoxic against said line (Meager A. et al.: Assays for tumor necrosis factor and related cytokines. J. Immunol. Methods 116: 1-17, 1989).
# Shortly, 5 x 10⁴ cells are cultured in 96 well plates with 0.1 ml RPMI 1640 medium containing 10 % (v/v) of bovine serum inactivated at 56 °C for 30'.
# After 18 hours the medium is replaced with 0.1 ml of fresh medium, containing serial dilutions of serum samples to be tested in the presence of actinomycin D (2 µg/ml) and lithium chloride 20 mM in order to increase the method sensitivity, namely the TNF cytotoxicity (Beyaert R. et al.: Lithium chloride potentiates tumor necrosis factor-mediated cytotoxicity in vitro and in vivo. Proc. Natl. Acad. Sci. 86: 9494-9498, 1989).
# An […] (4000 U/ml of TNF-α(Genzyme) is added to 3 wells in every plate and said wells are utilized as positive control in order to check the sensitivity level of the cellular line, namely to verify the specificity dosage.
# As negative controls, wells containing untreated mice serum, are used.
# After 18 hours the medium is sucked and replaced with 0.1 ml of a saline solution containing 30 mM of glucose and 0.45 mg/ml of MTT tetrazolium (3-[4,5-dimethylthiazol-2-yl]-2,5 diphenyl-tetrazolium bromide. Then, after 4 hours, 0.1 ml of an acid solution of isopropanol (0.08 N HCl in isopropanol) is added and the absorbance is read by using a plate spectrophotometer scanner provided with a filter specific for 570 nm absorbance.
# TNF cytotoxicity is calculated, by applying the formula: [formula] TNF-α title in serum samples is expressed in unit/ml and corresponds to the inverse of the dilution bringing to 50 % of cellular survival (Meager A. et al.: Assays for tumor necrosis factor and related cytokines. J. Immunol. Methods 116: 1-17, 1989).
# In order to validate the test an anti-TNF-α murine antibody (Genzyme) is used which, as foreseen (see the results) blocks completely the cytotoxicity of murine serum but not the one of rabbit serum.
Molecule,Inhibition (%) (dose 25 mg/kg i.p. for 3 days),TNF-α title treated (dose 25 mg/kg i.p. for 3 days),TNF-α title treated (dose 20 mg/kg i.p. for 3 days),Inhibition (%) (dose 20 mg/kg i.p. for 3 days)
phosphatidylethanolamine [PE],56%,137±46 (6) U/serum ml,,
phosphatidylserine [PS],68%,81±21 (9) U/serum ml,,
"CCCCCCCCCCCCCC(=O)OCCCOP(=O)(O)OC[C@H](N)C(=O)O [PSS₄, 1-myristoyl-2-deoxi-3-glycerophospho-L-serine]",,,50±16 (5) U/serum ml,
"phosphatidylcholine [PC, reference compound]",16%,176±53 (12) U/serum ml,,
"phosphatidylglycerol [PG, reference compound]",inactive,238±37 (18) U/serum ml,,
lysophosphatidylserine [DPS],,,45±11 (5) U/serum ml,80
